# Data published in patent US20120258971A1, “THERAPEUTIC AGENT FOR CHRONIC PAIN” (OTSUKA PHARMACEUTICAL CO., LTD., priority 2009, published 2012).
# Where a name gives a salt, the structure may show the parent alone.
# Tested on: chronic occipital-cervical pain
# Assay: Pain intensity (numerical rating scale, NRS) in a chronic pain patient during drug treatment
# Format: in vivo, human
# Details: for Effect on pain of the chronic pain patient (in words): single chronic pain patient, oral administration, overall conclusion
# Description: Morphine, fluvoxamine, aripiprazole, and other drugs were administered for about 11 months to a patient who was diagnosed as a chronic pain sufferer with chronic occipital-cervical pain that had continued for ten years or more. The intensity of the pain in the patients' occipital-cervical region (neck) was evaluated over time.
# The intensity of pain was evaluated using a numerical rating scale (NRS) in which pain was orally reported on an 11-step scale (0 to 10). This evaluation method numerically expresses (quantifies) the degree of pain on a scale of 0 (no pain) to 10 (worst conceivable pain). This method provides a good reflection of the degree of pain of a patient before and after treatment.
# From the 4th week of the first month, in addition to morphine, oral administration of fluvoxamine (Depromel tablets; produced by Meiji Seika Pharma Co., Ltd.) in a dose of 50 mg/day was started.
# Then, from the 4th week of the 4th month, aripiprazole (Abilify tablets; produced by Otsuka Pharmaceutical Co., Ltd.) was orally administered in a dose of 3 mg/day. […] Furthermore, even when the administration of morphine was stopped from the 8th month, the NRS value remained at 0.
# Thereafter, when the dose of aripiprazole (Abilify tablets; produced by Otsuka Pharmaceutical Co., Ltd.) was increased to 9 mg/day after the 4th week of the 9th month, and further increased to 12 mg/day after the 4th week of the 10th month, the NRS value was 0, and no change was observed.
SMILES,"NRS value (aripiprazole 3 mg/day oral from 4th week of 4th month, first week of the 5th month)","NRS value (aripiprazole 3 mg/day oral, from the second week of the 6th month)",NRS value (aripiprazole increased to 9 mg/day (after 4th week of 9th month) and 12 mg/day (after 4th week of 10th month)),"NRS value (aripiprazole, after morphine was stopped from the 8th month)",Effect on pain of the chronic pain patient (in words)
"O=C1CCc2ccc(OCCCCN3CCN(c4cccc(Cl)c4Cl)CC3)cc2N1 [aripiprazole, 7-{4-[4-(2,3-dichlorophenyl)-1-piperazinyl]butoxy}-3,4-dihydrocarbostyril]",1,0,0,0,could dramatically reduce the pain
COCCCC/C(=N\OCCN)c1ccc(C(F)(F)F)cc1 [fluvoxamine],–,–,–,–,the pain was not relieved at all
CN1CC[C@]23c4c5ccc(O)c4O[C@H]2[C@@H](O)C=C[C@H]3[C@H]1C5 [morphine hydrochloride tablets],–,–,–,–,the pain was not relieved
